Assays:
[1] = Clearance study, liver microsomes (rats); conditions: rat, pH 7.4
[2] = Clearance study, liver microsomes (human); conditions: pH 7.4
[3] = Clearance study, liver microsomes (mice); conditions: mouse, pH 7.4

SMILES	microsomal CLint at 1 μM [1] [µL/min/mg]	microsomal CLint at 1 μM [2] [µL/min/mg]	microsomal CLint at 1 μM [3] [µL/min/mg]
O=C(NCc1ccccc1)c1ccc2c(c1)N=C(c1cccc(Br)c1)c1ccccc1S2	69	4	566
CCCCNC(=O)c1ccc2c(c1)N=C(c1ccc(Br)cn1)c1ccccc1S2 [drawing 1654]	299	63	348
O=C(NCc1ccco1)c1ccc2c(c1)N=C(c1ccc(Cl)s1)c1ccccc1S2 [drawing 1656]	98	42	127
O=C(NCc1cccs1)c1ccc2c(c1)N=C(c1cccc(F)c1)c1ccccc1S2 [drawing 1658]	166	56	238
O=C(NCc1cccs1)c1ccc2c(c1)N=C(c1ccc(F)cc1)c1ccccc1S2 [drawing 1659]	171	52	171
CCCCNC(=O)c1ccc2c(c1)N=C(c1ccc(Cl)cc1)c1ccccc1S2 [drawing 1661]	–	–	99
O=C(NCc1cccnc1)c1ccc2c(c1)N=C(c1ccc(Cl)c(Cl)c1)c1ccccc1S2 [drawing 1664]	33	19	38
CC(C)CCNC(=O)c1ccc2c(c1)N=C(c1cccc(Cl)c1)c1ccccc1S2 [drawing 1665]	77	25	249
O=C(NCc1ccco1)c1ccc2c(c1)N=C(c1ccc(Cl)c(Cl)c1)c1ccccc1S2 [drawing 1666]	25	21	27
O=C(NCCc1cccnc1)c1ccc2c(c1)N=C(c1ccc(Cl)c(Cl)c1)c1ccccc1S2 [drawing 1668]	65	41	82
CCCCNC(=O)c1ccc2c(c1)N=C(c1ccc(Cl)s1)c1ccccc1S2 [drawing 1669]	80	32	266
O=C(NCc1cccc(Cl)c1)c1ccc2c(c1)N=C(c1ccc(F)cc1)c1ccccc1S2(=O)=O [drawing 1670]	31	32	32
CC(C)CNC(=O)c1ccc2c(c1)N=C(c1ccc(Cl)c(Cl)c1)c1ccccc1S2 [drawing 1671]	26	4	107
CCCCNC(=O)c1cc2c(cc1O)Sc1ccccc1C(c1ccc(Cl)cc1)=N2 [drawing 1672]	7	–	12
O=C(NCc1ccccc1Cl)c1ccc2c(c1)N=C(c1cccc(Cl)c1)c1ccccc1S2 [drawing 1674]	48	28	124
O=C(NC1CCCCC1)c1ccc2c(c1)N=C(c1cccc(Cl)c1)c1ccccc1S2 [drawing 1675]	48	12	58
O=C(NN1CCCCC1)c1ccc2c(c1)N=C(c1ccc(Cl)cc1)c1ccccc1S2 [drawing 1676]	60	32	126
CC(C)CNC(=O)c1ccc2c(c1)N=C(c1ccc(Cl)cc1F)c1ccccc1S2 [drawing 1677]	51	20	98
CC(C)CNC(=O)c1ccc2c(c1)N=C(c1ccc(Cl)s1)c1ccccc1S2 [drawing 1681]	–	–	412
O=C(NC1CCCCC1)c1ccc2c(c1)N=C(c1ccc(F)cc1)c1ccccc1S2 [drawing 1683]	108	31	62
O=C(NCc1ccco1)c1ccc2c(c1)N=C(c1cccc(Cl)c1)c1ccccc1S2 [drawing 1684]	93	35	133
O=C(NCc1cccc(Cl)c1)c1ccc2c(c1)N=C(c1ccc(Cl)cc1)c1cc(F)ccc1S2 [drawing 1686]	48	3	96
O=C(NN1CCCCCC1)c1ccc2c(c1)N=C(c1ccc(Cl)s1)c1ccccc1S2 [drawing 1687]	186	122	360
O=C(NN1CCCCCC1)c1ccc2c(c1)N=C(c1cccc(Cl)c1)c1ccccc1S2 [drawing 1689]	162	59	124
O=C(NCCc1cccnc1)c1ccc2c(c1)N=C(c1ccc(Cl)s1)c1ccccc1S2 [drawing 1690]	96	238	122
CCCNC(=O)c1ccc2c(c1)N=C(c1ccc(Cl)cc1)c1ccccc1S2 [drawing 1691]	63	15	694
O=C(NN1CCCCC1)c1ccc2c(c1)N=C(C1CCCCC1)c1ccccc1S2 [drawing 1695]	–	–	349

SMILES	microsomal CLint at 1 μM [1] [µL/min/mg]	microsomal CLint at 1 μM [2] [µL/min/mg]	microsomal CLint at 1 μM [3] [µL/min/mg]
CCCCNC(=O)c1ccc2c(c1)N=C(c1cccc(F)c1)c1ccccc1S2 [drawing 1700]	152	65	647
CCCCNC(=O)c1ccc2c(c1)N=C(c1ccc(Cl)cn1)c1ccccc1S2 [drawing 1704]	320	70	477
Cc1ccsc1C1=Nc2cc(C(=O)NN3CCCCCC3)ccc2Sc2ccccc21 [drawing 1706]	358	118	448
COc1ccc(C2=Nc3cc(C(=O)NCC(C)C)ccc3Sc3ccccc32)cc1 [drawing 1708]	113	78	218
O=C(NC1CCCCC1)c1ccc2c(c1)N=C(c1ccc(Cl)cc1)c1ccccc1S2 [drawing 1712]	43	8	78
CCCCNC(=O)c1ccc2c(c1)N=C(c1ccc(Cl)cc1)c1sccc1S2 [drawing 1717]	–	–	79
O=C(NCc1cccs1)c1ccc2c(c1)N=C(c1ccc(Cl)s1)c1ccccc1S2 [drawing 1723]	97	30	184
O=C(NCc1cccnc1)c1ccc2c(c1)N=C(c1ccc(F)cc1)c1ccccc1S2 [drawing 1724]	107	61	101
O=C(NCc1cccc(Cl)c1)c1ccc2c(c1)N=C(c1ccc(Cl)cc1)c1ccccc1S2 [drawing 1725]	58	9	238
O=C(NCc1cccnc1)c1ccc2c(c1)N=C(c1ccc(Br)cc1)c1ccccc1S2 [drawing 1728]	70	39	83
Cc1ccsc1C1=Nc2cc(C(=O)NN3CCCCC3)ccc2Sc2ccccc21 [drawing 1730]	304	50	385
O=C(NCc1cccs1)c1ccc2c(c1)N=C(c1cccc(Cl)c1)c1ccccc1S2 [drawing 1733]	99	32	187
O=C(NCc1cccs1)c1ccc2c(c1)N=C(c1ccc(Cl)cc1)c1ccccc1S2 [drawing 1735]	76	17	90
CCCCNC(=O)c1ccc2c(c1)N=C(c1ccc(Cl)cc1)c1ccccc1[S+]2[O-] (centres unmarked) [drawing 1736]	41	31	53
O=C(NCc1ccc(F)cc1)c1ccc2c(c1)N=C(c1ccc(Cl)cc1)c1ccccc1S2 [drawing 1741]	56	16	130
O=C(NCc1cccnc1)c1ccc2c(c1)N=C(c1cccc(F)c1)c1ccccc1S2 [drawing 1742]	187	73	127
O=C(NCc1cccs1)c1ccc2c(c1)N=C(c1ccccc1F)c1ccccc1S2 [drawing 1744]	225	89	386
CC(C)CCNC(=O)c1ccc2c(c1)N=C(c1ccccn1)c1ccccc1S2 [drawing 1784]	–	–	68
CC(C)CNC(=O)c1ccc2c(c1)N=C(c1cccc(Cl)c1)c1ccccc1S2 [drawing 1795]	–	–	69
O=C(NCCc1ccc(Cl)cc1)c1ccc2c(c1)N=C(c1ccc(F)cc1)c1ccccc1S2 [drawing 1799]	208	100	–
O=C(NCc1cccc(Cl)c1)c1ccc2c(c1)N=C(N1CCC(F)(F)CC1)c1ccccc1S2 [drawing 1800]	–	–	120
O=C(NCCc1ccc(Cl)cc1)c1ccc2c(c1)N=C(N1CCC(F)(F)CC1)c1ccccc1S2 [drawing 1802]	289	343	–
CC(NC(=O)c1ccc2c(c1)N=C(c1ccc(Cl)cc1)c1ccccc1S2)c1ccccc1 (centres unmarked) [drawing 1804]	62	18	–
O=C(NCc1cccc(Cl)c1)c1ccc2c(c1)N=C(c1cccc(Cl)c1)c1cc(F)ccc1S2 [drawing 1805]	61	10	–
CC(C)CNC(=O)c1ccc2c(c1)N=C(c1ccc(Cl)cn1)c1ccc(Cl)cc1S2 [drawing 1806]	135	13	–
O=C(NCCc1ccc(Cl)cc1)c1ccc2c(c1)N=C(c1ccc(Cl)cc1)c1ccccc1S2 [drawing 1807]	122	54	–
Cc1ccc(N2CCN(C(=O)c3ccc4c(c3)N=C(c3ccc(Cl)cc3)c3ccccc3S4)CC2)c(C)c1 [drawing 1808]	39	37	–

Source: patent US20080090805A1, “CB-1 MODULATING COMPOUNDS AND THEIR USE” (ACADIA PHARMACEUTICALS INC., priority 2005, published 2008)
